Laboratory results published in publication PMC5667506, “Potent and selective inhibition of SH3 domains with dirhodium metalloinhibitors” (Chemical Science, 2015).
One block for each substance: values may come before it. Rh2(OAc)3 = dirhodium(II) triacetate, bound to the side-chain carboxylate

Legend:
Lyn SH3 H78A mutant = target: T1, Lyn SH3 H78A mutant (Homo sapiens, UniProt P07948, H78A); test: Binding to Lyn SH3 H78A mutant; settings: read-out: affinity
T1 construct: The lyn SH3 domain was amplified by PCR using Phusion DNA polymerase; GST (N, cleaved yes); made in house; host or cells: E. coli BL21 (DE3)
T1 sequence (P07948 63-123 H78A limits assumed): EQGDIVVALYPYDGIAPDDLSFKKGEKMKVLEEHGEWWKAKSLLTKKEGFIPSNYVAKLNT
Description: (§1) The remarkable 6 nM affinity, far stronger than that of any reported non-protein ligand for SH3 domains, led us to study the structural basis of the observed affinity. […] The H78A and H96A double mutant binds much more weakly (>5 μM). […] That the majority of the stabilization energy comes from the first histidine coordination is consistent with the negative cooperativity generally seen for axial coordination to rhodium(II): a second coordination in solution is roughly two orders of magnitude less favorable.[40]–[43]
(§2) Abl SH3 domain preparation. The abl SH3 domain was amplified by PCR using Phusion DNA polymerase (Finnzymes). The
(§3) reactions were performed following manufacture's protocol with Phusion HF buffer and 5% DMSO. Primers were designed as
(§4) follows: 5'-[…]-3' (BamHI site underlined) and a reverse primer, 5'-
(§5) -3' (EcoRI site underlined). The resultant product was digested with
(§6) BamHI and EcoRI and subcloned into BamHI-EcoRI sites of pGex-KTO. Confirmed PCR fidelity by sequencing.
(§7) Hck SH3 domain preparation. The hck SH3 domain was amplified by PCR using Phusion DNA polymerase (Finnzymes). The
(§8) Lyn SH3 domain preparation. The lyn SH3 domain was amplified by PCR using Phusion DNA polymerase (Finnzymes). The […]
(§9) assessed by SDS-PAGE using 12% Bis-Tris gels (Invitrogen). […]
(§10) concentrated, and aliquoted for storage at –80 °C. Concentration was determined using the absorbance at 280 nm (NanoDrop, […]

Fyn SH3 domain = target: Fyn SH3 domain; design: method as in PMID 22621321; settings: Fyn SH3, ITC; previously reported ref 52; cited from earlier work
[1] = target: T2, Full-length Lyn kinase (GST-tagged Lyn B) (Homo sapiens, UniProt P07948); test: Lyn kinase activation assay (ADP-Glo Kinase Assay); assay type: biochemical; settings: 74 nM Lyn, 5 min
T2 construct: Full-length Lyn kinase (74 nM) was treated with substrate peptide and ATP; purchased Promega
T2 sequence (P07948 1-491 isoform P07948-2): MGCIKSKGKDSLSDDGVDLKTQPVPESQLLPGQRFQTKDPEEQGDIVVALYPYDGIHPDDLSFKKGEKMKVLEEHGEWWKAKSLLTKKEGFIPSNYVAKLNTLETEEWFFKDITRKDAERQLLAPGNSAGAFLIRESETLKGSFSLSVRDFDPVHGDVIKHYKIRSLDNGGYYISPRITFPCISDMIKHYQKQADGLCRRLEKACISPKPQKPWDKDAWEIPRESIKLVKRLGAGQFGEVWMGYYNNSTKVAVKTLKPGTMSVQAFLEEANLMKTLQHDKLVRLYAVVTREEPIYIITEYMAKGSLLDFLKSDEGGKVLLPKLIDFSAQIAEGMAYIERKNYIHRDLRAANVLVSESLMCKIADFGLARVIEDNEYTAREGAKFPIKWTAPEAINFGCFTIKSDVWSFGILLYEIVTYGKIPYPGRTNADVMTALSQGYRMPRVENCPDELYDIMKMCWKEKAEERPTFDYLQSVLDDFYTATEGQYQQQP
Description: We examined phosphorylation of a peptide substrate at low enzyme concentration (0.074 μM) and short reaction time (t = 5 min) to minimize the alternative autophosphorylation activation pathway (Fig. 6). Kinase activation with traditional ligands has typically required high ligand concentrations (∼1 mM) to overcome the intramolecular nature of the SH3–kinase domain interaction.
Fig. 6 Activation of Lyn kinase activity by a metallopeptide, S2E^Rh, and the parent peptide, S2E. […] Full-length Lyn kinase (74 nM) was treated with substrate peptide and ATP. Kinase activity was measured after 5 min in an adaptation of reported methods.[5] See ESI ^† for details.
All chemical reagents were purchased from Sigma-Aldrich and were used without further purification. […]
Kinase assay. ATP turnover by Lyn was measured using the ADP-GloTM Kinase Assay (Promega) according to the manufacturer’s protocol. Briefly, final concentrations of 72 μM ATP, 74 nM Lyn (GST-tagged Lyn B), and 240 μM substrate peptide (all from Promega) were combined in buffer (40 mM Tris, 50 μM dithiothreitol, 2 mM MnCl2 and 0.1 mg/mL BSA at pH 7.5) with a solution of the desired treatment (or control) in the same buffer for a final reaction volume of 5 µL. The kinase reaction was allowed to proceed at room temp. for 5 min from addition of ATP before the start of the ADP-Glo protocol halted the reaction. Chemiluminescence data were acquired on a Tecan Infinite M1000 microplate reader in white 384 well low volume plates (Corning Costar 3674) with an integration time of 250 ms per well. […]

Lyn SH3 H96A mutant = target: T3, Lyn SH3 H96A mutant (Homo sapiens, UniProt P07948, H96A); test: Binding to Lyn SH3 H96A mutant; settings: read-out: affinity
T3 construct: The lyn SH3 domain was amplified by PCR using Phusion DNA polymerase; GST (N, cleaved yes); made in house; host or cells: E. coli BL21 (DE3)
T3 sequence (P07948 63-123 H96A limits assumed): as the sequence (P07948 63-123 H78A limits assumed) above, with A16H, H34A counted along it
Description: as §1, §2, §3, §4, §5, §6, §7, §8, §9, §10

[2] = target: T4, Lyn SH3 H78A and H96A double mutant (Homo sapiens, UniProt P07948, H78A/H96A); test: Binding to Lyn SH3 H78A and H96A double mutant; settings: read-out: affinity
T4 construct: The lyn SH3 domain was amplified by PCR using Phusion DNA polymerase; GST (N, cleaved yes); made in house; host or cells: E. coli BL21 (DE3)
T4 sequence (P07948 63-123 H78A/H96A limits assumed): as the sequence (P07948 63-123 H78A limits assumed) above, with H34A counted along it
Description: as §1, §2, §3, §4, §5, §6, §7, §8, §9, §10

Kd (Lyn SH3 H78A mutant): 20 nM
Substance: AcVELARRPLPPLPN-NH2 (Ac-VE(Rh2(OAc)3)LARRPLPPLPN-NH2; also: metal complex: Glu2 carboxylate bound to dirhodium(II) triacetate) [S2E^Rh, rhodium(II) metallopeptide made from S2E peptide (Ac…-NH2) and Rh2(tfa)(OAc)3]

concentration above which slight activation is seen [1]: above 100 μM
concentration at which complete activation response was achieved [1]: 630 nM
concentration giving strong Lyn activation [1]: 200 nM
Substance: AcVELARRPLPPLPN-NH2 [S2E^Rh]
Kd (Fyn SH3 domain): 769 nM

Kd (Lyn SH3 H96A mutant): 39 nM
Kd [2]: > 5000 nM
Substance: AcVELARRPLPPLPN-NH2 (Ac-VELARRPLPPLPN-NH2; also: Glu2 side-chain carboxylate bound to Rh2(OAc)3) [S2E^Rh, rhodium(II) metallopeptide made from S2E peptide (Ac…-NH2) and Rh2(tfa)(OAc)3]
